In paper PMC4763988, “Activating peptides for cellular uptake via polymerization into high density brushes” (Chemical Science, 2015):
NorAha = not defined here

Columns and labels:
[1] = test system: HeLa cells; test: Propidium iodide cell staining assay for necrotic cells; type: cell-based; conditions: flow cytometry PI channel; for Propidium iodide staining, shift of cell population (in words): KLA m ~ 10 5 hr, staurosporine 1 µM 24 hrs
Method: Apoptosis and necrosis assays. Apoptotic and necrotic cells were identified using the CFTM488A Annexin V
stains necrotic cells. For these studies, HeLa cells were plated at a density of 420,000 cells per well of a 6-well
plate 18 hrs prior to treatment. KLA, m ~ 10, was dissolved in DPBS to a concentration of 2000 µM, where
concentration is with respect to peptide and no fluorophore is present. Staurosporin, a small molecule that is
known to cause apoptosis, was dissolved at 1000× (desired concentration on cells is 1 µM) in DMSO.
Staurosporin and the vehicle control were added to the wells 24 hrs prior to analysis, and KLA (m ~ 10) and 10%
DMSO control were added 5 hr prior to analysis. After incubation, materials were removed and the cells were
washed 2× with DPBS followed by 3 × 5 minute incubations with heparin (0.5 mg/mL in DPBS), and finally rinsed
and the cells were transferred to Eppendorf tubes. The suspended cells were centrifuged to pellets and then
resuspended in 100 µL Annexin V binding buffer. Then 5 µL of Annexin V was added to each Eppendorf, followed
by 1 µL of PI. The cells were then incubated in a 37 ° C water bath for 15 minutes in the dark. After incubation,
flow cytometry data was acquired monitoring the FITC channel (for Annexin V staining) and the PI channel.

[2] = test system: cells; conditions: cited from earlier work
[3] = Aggregation in DPBS by dynamic light scattering; type: physicochemical; conditions: for diameter by DLS: dissolved in DPBS, 10 x the concentration used in uptake studies, correlates to unimers
Description: (§1) and dried. In preparation for in vitro cell studies, all polymers were washed (3×) with cold ether (to remove the Ru catalyst) and then dissolved in DPBS and dialyzed in dialysis cups with a molecular weight cut-off value of 3500 (Thermo Scientific, cat. # 69552) in an effort to remove any residual monomer or catalyst.
(§2) We also sought to determine whether our block copolymers (i.e., GSGSGRR60-b-OEG20 and derivatives) formed larger aggregate structures in aqueous solution. To this end, we characterized three polymers GSGSGRR m ~ 60, GSGSGKK m ~ 60 and GSGSG m ~ 60 dissolved in DPBS by standard dynamic light scattering (DLS) and […] electron microscopy (TEM) analyses, which we perform routinely in other work to characterize nano-and micron-scale polymer assemblies. […]
quench here with IV. deprotection
(§3) Figure S5. Polymerization scheme for the preparation of GSGSG peptide polymers and analogues. Peptide polymers for this series are prepared via ROMP as block copolymers with an accessory OEG block to ensure aqueous solubility of all GSGSG analogues. Each peptide block is polymerized to m ~ 8, 15, 30, and 60. The OEG block is kept constant at a DP of ~ 20. The living polymer can be terminated with ethyl vinyl ether after completion of the peptide block to gain accurate molecular weights (Mn), dispersity (Mw/Mn) and degree of polymerization (DP). […]

[4] = Aggregation in DPBS by TEM; type: physicochemical; conditions: dissolved in DPBS, 10 x the concentration used in uptake studies
Description: as §1, §2, §3

[5] = test system: HeLa cells
[6] = test system: HeLa cells; remark: listed apart in the source
[7] = target: trypsin (Sus scrofa, UniProt P00761); conditions: 50 µM with respect to peptide, protease 1 µM (Fig. S25 for KLA: 10 µM), 3 hrs in DPBS, heat denatured 65 °C 15 m, RP-HPLC with standard curve
Chain of trypsin (P00761 9-231): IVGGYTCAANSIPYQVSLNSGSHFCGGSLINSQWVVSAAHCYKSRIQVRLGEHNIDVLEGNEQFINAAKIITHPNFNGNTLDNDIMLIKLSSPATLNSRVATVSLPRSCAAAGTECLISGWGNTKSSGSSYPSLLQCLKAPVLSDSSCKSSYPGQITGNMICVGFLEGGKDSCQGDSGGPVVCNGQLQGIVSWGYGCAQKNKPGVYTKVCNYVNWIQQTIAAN

[8] = test system: pronase (protease cocktail); conditions: 50 µM with respect to peptide, protease 1 µM (Fig. S25 for KLA: 10 µM), 3 hrs in DPBS, heat denatured 65 °C 15 m, RP-HPLC with standard curve
[9] = test system: HeLa cells; type: cell-based
Method: Figures S10. Influence of the degree of polymerization or “m” on cellular uptake as quantified by flow cytometry. All data are […] with respect to the fluorophore. 20 15 10 Conc.&(μM)& […] 5 […] 0 […] Figures S11. Concentration dependence of cellular uptake as quantified by flow cytometry. All data are referenced to vehicle […] Concentration of all materials is with respect to the fluorophore. SVI. Live-cell confocal microscopy. HeLa cells were plated on glass-bottom 24-well plates at a cell density of 90,000 cells per well 18 hrs prior to treatment with the compound of interest. The medium was removed and then replaced with medium lacking phenol red (Gibco Life Tech., cat# 31053-028) to minimize background fluorescence. […] respect to fluorophore) were added to the wells and the plates were incubated for 30 min at 37 °C. The medium was then removed and the cells were rinsed 2× with DPBS, and then fresh medium (phenol red- free) was added to each well. Live cells were imaged on an Olympus FV1000 confocal microscope with a chamber at 37 ° C under 5% CO2 via a Z-stack analysis (set to 1 μm slices) using identical instrument settings for each image and a 40× or 100x objective. S14 (also on this page, place not known: 31053 -028) […] Normalized Mean Fluorescence […]

[10] = test system: mitochondrial membrane potential in HeLa cells; test: JC-1 mitochondrial integrity (membrane potential) assay; type: cell-based; conditions: JC-1 assay, relative to vehicle (DPBS)-treated cells

C[S+](C)[O-] [DMSO]
Propidium iodide staining, increase in necrotic cells ([1]; 10% DMSO added 5 hr prior to analysis): ~40 fold increase

CN[C@@H]1C[C@H]2O[C@@](C)([C@@H]1OC)n1c3ccccc3c3c4c(c5c6ccccc6n2c5c31)C(=O)NC4 [Staurosporine]
Propidium iodide staining, shift of cell population (in words) [1]: no shift

GSGSG
Cell penetration of GSGSG (in words) [2]: does not penetrate cells

GSGSG56-b-OEG28 [GSGSG polymer]
diameter by DLS [3]: < 6 nm
TEM images compared with buffer (DPBS) alone [4]: indistinguishable

GSGSGK53-b-OEG20 [GSGSGK Polymer (m ~ 60)]
Aggregation of deprotected polymer in DPBS by dynamic light scattering (in words) ([3]; DPBS, deprotected polymer): did not aggregate in DPBS

K(Flu)KLAKLAKKLAKLAK-NH2 [KLA peptide]
Cellular uptake: fluorescence signal of treated HeLa cells by flow cytometry (in words) [5]: indistinguishable from that of the vehicle control
Cytotoxicity (in words) [6]: no cytotoxicity was detected
Proteolytic degradation by trypsin (RP-HPLC before and after, in words) [7]: completely degraded into fragments
Proteolytic degradation by pronase (RP-HPLC before and after, in words) [8]: completely degraded into fragments
Cell penetration of KLA (in words) ([2]; sub-millimolar concentrations): does not penetrate cells at sub-millimolar concentrations

NorAhaGSGSGKK-NH2 [GSGSGKK polymer]
diameter by DLS [3]: < 6 nm
TEM images compared with buffer (DPBS) alone [4]: indistinguishable
Internalization and localization by live-cell confocal microscopy (in words) [9]: diffuse and punctate fluorescence

NorAhaKLAKLAK-NH2 (NorAha-KLAKLAK-NH2; reading uncertain; also: polymerized by ROMP, about 10 repeats on polymer backbone) [KLAfragment]
Mitochondrial integrity of treated cells (in words) [10]: unaffected
Internalization and localization by live-cell confocal microscopy (in words) [9]: mixture of diffuse and punctate fluorescence
Cytotoxicity (in words) [6]: negligible toxicity

NorAhaKLAKLAKKLAKLAK-NH2 [KLA polymer (m ∼ 5)]
LD50 [6]: 12.5 µM

NorAhaKLAKLAKKLAKLAK-NH2 [KLA polymer (m ∼ 10)]
Propidium iodide staining, shift of cell population (in words) [1]: no shift
Internalization and localization by live-cell confocal microscopy (in words) [9]: diffuse and punctate fluorescence
LD50 [6]: 25 µM

NorAhaKLAKLAKKLAKLAK-NH2 [KLA polymer (m ∼ 15)]
LD50 [6]: 30 µM
